{"source": "patent US12435044B2", "about": "“Pyridazinone herbicides and pyridazinone intermediates used to prepare a herbicide” (FMC Corporation, priority 2018, dated 2025)", "assay_in_all_cases": "Test C pre-/postemergence greenhouse test", "assay_type_in_all_cases": "in vivo", "details_in_all_cases": "scale 0 to 100", "key": {"[1]": {"system": "galium (catchweed bedstraw, Galium aparine)", "from_the_text": "(§1) Seeds of plant species selected from blackgrass (Alopecurus myosuroides), ryegrass, Italian (Lolium multiflorum), wheat, winter (winter wheat, Triticum aestivum), galium (catchweed bedstraw, Galium aparine), corn (Zea mays), crabgrass, large (Digitaria sanguinalis), foxtail, giant (Setaria faberii), johnsongrass (Sorghum halepense), lambsquarters (Chenopodium album), morningglory (Ipomoea coccinea), nutsedge, yellow (Cyperus esculentus), pigweed (Amaranthus retroflexus), ragweed (common ragweed, Ambrosia elatior), soybean (Glycine max), barnyardgrass (Echinochloa crus-galli), oilseed rape (Brassica napus), waterhemp (common waterhemp, Amaranthus rudis), pigweed, palmer (Amaranthus palmeri), kochia (Kochia scoparia), oat, wild (Avena fatua), surinam grass (Brachiaria decumbens), windgrass (Apera spica-venti), poinsettia, wild (Euphorbia heterophylla) and velvetleaf (Abutilon theophrasti) were planted into a silt loam soil and treated preemergence with test chemicals formulated in a non-phytotoxic solvent mixture which included a surfactant.\n(§2) At the same time, plants selected from these crop and weed species and also chickweed (common chickweed, Stellaria media), buckwheat, wild (Polygonum convolvulus), mustard, wild (Sinapis arvensis), field poppy (Papaver rhoeas), field violet (Viola arvensis), nightshade (eastern black nightshade, Solanum ptycanthum), speedwell (bird's-eye speedwell, Veronica persica), horseweed (Conyza canadensis), cutleaf geranium (Geranium dissectum), and Canada thistle (Cirsium arvense) were planted in pots containing Redi-Earth® planting medium (Scotts Company, 14111 Scottslawn Road, Marysville, Ohio 43041) comprising spaghnum peat moss, vermiculite, wetting agent and starter nutrients and treated with postemergence applications of test chemicals formulated in the same manner. Plants ranged in height from 2 to 18 cm (1- to 4-leaf stage) for postemergence treatments. Treated plants and controls were maintained in a greenhouse for 13 to 21 d, after which time all species were compared to controls and visually evaluated. Plant response ratings, summarized in Table C-1 (postemergence) and C-2 (preemergence), are based on a scale of 0 to 100 where 0 is no effect and 100 is complete control. A dash (-) response means no test result."}, "kochia (Kochia scoparia)": {"system": "kochia (Kochia scoparia)", "from_the_text": "as §1, §2"}, "[2]": {"system": "nutsedge, yellow (Cyperus esculentus)", "from_the_text": "as §1, §2"}, "[3]": {"system": "johnsongrass (Sorghum halepense)", "from_the_text": "as §1, §2"}, "[4]": {"system": "barnyardgrass (Echinochloa crus-galli)", "from_the_text": "as §1, §2"}, "[5]": {"system": "waterhemp (common waterhemp, Amaranthus rudis)", "from_the_text": "as §1, §2"}, "[6]": {"system": "surinam grass (Brachiaria decumbens)", "from_the_text": "as §1, §2"}, "corn (Zea mays)": {"system": "corn (Zea mays)", "from_the_text": "as §1, §2"}, "[7]": {"system": "pigweed, palmer (Amaranthus palmeri)", "from_the_text": "as §1, §2"}}}
{"smiles": "Cc1ccc2ccc(Cl)cc2c1-c1c(O)c(Cl)nn(C)c1=O", "note": "[Cpd. No. 22]", "values": [{"measurement": "Plant response rating, Galium", "setting": "[1]; Postemergence, 16 g ai/ha", "value": 85}, {"measurement": "Plant response rating, Galium", "setting": "[1]; Postemergence, 31 g ai/ha", "value": 85}, {"measurement": "Plant response rating, Galium", "setting": "[1]; Postemergence, 62 g ai/ha", "value": 95}, {"measurement": "Plant response rating, Galium", "setting": "[1]; Postemergence, 125 g ai/ha", "value": 98}, {"measurement": "Plant response rating, Galium", "setting": "[1]; Preemergence, 31 g ai/ha", "value": 50}, {"measurement": "Plant response rating, Galium", "setting": "[1]; Preemergence, 61 g ai/ha", "value": 20}, {"measurement": "Plant response rating, Galium", "setting": "[1]; Preemergence, 62 g ai/ha", "value": 70}, {"measurement": "Plant response rating, Galium", "setting": "[1]; Preemergence, 125 g ai/ha", "value": 95}, {"measurement": "Plant response rating, Kochia", "setting": "kochia (Kochia scoparia); Postemergence, 16 g ai/ha", "value": 25}, {"measurement": "Plant response rating, Kochia", "setting": "kochia (Kochia scoparia); Postemergence, 31 g ai/ha", "value": 35}, {"measurement": "Plant response rating, Kochia", "setting": "kochia (Kochia scoparia); Postemergence, 62 g ai/ha", "value": 65}, {"measurement": "Plant response rating, Kochia", "setting": "kochia (Kochia scoparia); Postemergence, 125 g ai/ha", "value": 70}, {"measurement": "Plant response rating, Kochia", "setting": "kochia (Kochia scoparia); Preemergence, 31 g ai/ha", "value": 5}, {"measurement": "Plant response rating, Kochia", "setting": "kochia (Kochia scoparia); Preemergence, 61 g ai/ha", "value": 0}, {"measurement": "Plant response rating, Kochia", "setting": "kochia (Kochia scoparia); Preemergence, 62 g ai/ha", "value": 80}, {"measurement": "Plant response rating, Kochia", "setting": "kochia (Kochia scoparia); Preemergence, 125 g ai/ha", "value": 95}, {"measurement": "Plant response rating, Nutsedge, Yellow", "setting": "[2]; Postemergence, 16 g ai/ha", "value": 10}, {"measurement": "Plant response rating, Nutsedge, Yellow", "setting": "[2]; Postemergence, 31 g ai/ha", "value": 35}, {"measurement": "Plant response rating, Nutsedge, Yellow", "setting": "[2]; Postemergence, 62 g ai/ha", "value": 90}, {"measurement": "Plant response rating, Nutsedge, Yellow", "setting": "[2]; Postemergence, 125 g ai/ha", "value": 85}, {"measurement": "Plant response rating, Nutsedge, Yellow", "setting": "[2]; Preemergence, 31 g ai/ha", "value": 50}, {"measurement": "Plant response rating, Nutsedge, Yellow", "setting": "[2]; Preemergence, 61 g ai/ha", "value": 25}, {"measurement": "Plant response rating, Nutsedge, Yellow", "setting": "[2]; Preemergence, 62 g ai/ha", "value": 75}, {"measurement": "Plant response rating, Nutsedge, Yellow", "setting": "[2]; Preemergence, 125 g ai/ha", "value": 95}, {"measurement": "Plant response rating, Johnsongrass", "setting": "[3]; Postemergence, 16 g ai/ha", "value": 20}, {"measurement": "Plant response rating, Johnsongrass", "setting": "[3]; Postemergence, 31 g ai/ha", "value": 40}, {"measurement": "Plant response rating, Johnsongrass", "setting": "[3]; Postemergence, 62 g ai/ha", "value": 50}, {"measurement": "Plant response rating, Johnsongrass", "setting": "[3]; Postemergence, 125 g ai/ha", "value": 60}, {"measurement": "Plant response rating, Johnsongrass", "setting": "[3]; Preemergence, 31 g ai/ha", "value": 30}, {"measurement": "Plant response rating, Johnsongrass", "setting": "[3]; Preemergence, 61 g ai/ha", "value": 5}, {"measurement": "Plant response rating, Johnsongrass", "setting": "[3]; Preemergence, 62 g ai/ha", "value": 50}, {"measurement": "Plant response rating, Johnsongrass", "setting": "[3]; Preemergence, 125 g ai/ha", "value": 70}, {"measurement": "Plant response rating, Barnyardgrass", "setting": "[4]; Postemergence, 16 g ai/ha", "value": 85}, {"measurement": "Plant response rating, Barnyardgrass", "setting": "[4]; Postemergence, 31 g ai/ha", "value": 90}, {"measurement": "Plant response rating, Barnyardgrass", "setting": "[4]; Postemergence, 62 g ai/ha", "value": 95}, {"measurement": "Plant response rating, Barnyardgrass", "setting": "[4]; Postemergence, 125 g ai/ha", "value": 95}, {"measurement": "Plant response rating, Barnyardgrass", "setting": "[4]; Preemergence, 31 g ai/ha", "value": 65}, {"measurement": "Plant response rating, Barnyardgrass", "setting": "[4]; Preemergence, 61 g ai/ha", "value": 5}, {"measurement": "Plant response rating, Barnyardgrass", "setting": "[4]; Preemergence, 62 g ai/ha", "value": 85}, {"measurement": "Plant response rating, Barnyardgrass", "setting": "[4]; Preemergence, 125 g ai/ha", "value": 100}, {"measurement": "Plant response rating, Waterhemp", "setting": "[5]; Postemergence, 16 g ai/ha", "value": 75}, {"measurement": "Plant response rating, Waterhemp", "setting": "[5]; Postemergence, 31 g ai/ha", "value": 85}, {"measurement": "Plant response rating, Waterhemp", "setting": "[5]; Postemergence, 62 g ai/ha", "value": 85}, {"measurement": "Plant response rating, Waterhemp", "setting": "[5]; Postemergence, 125 g ai/ha", "value": 90}, {"measurement": "Plant response rating, Waterhemp", "setting": "[5]; Preemergence, 31 g ai/ha", "value": 85}, {"measurement": "Plant response rating, Waterhemp", "setting": "[5]; Preemergence, 61 g ai/ha", "value": 70}, {"measurement": "Plant response rating, Waterhemp", "setting": "[5]; Preemergence, 62 g ai/ha", "value": 95}, {"measurement": "Plant response rating, Waterhemp", "setting": "[5]; Preemergence, 125 g ai/ha", "value": 95}, {"measurement": "Plant response rating, Surinam Grass", "setting": "[6]; Postemergence, 16 g ai/ha", "value": 80}, {"measurement": "Plant response rating, Surinam Grass", "setting": "[6]; Postemergence, 31 g ai/ha", "value": 85}, {"measurement": "Plant response rating, Surinam Grass", "setting": "[6]; Postemergence, 62 g ai/ha", "value": 95}, {"measurement": "Plant response rating, Surinam Grass", "setting": "[6]; Postemergence, 125 g ai/ha", "value": 95}, {"measurement": "Plant response rating, Surinam Grass", "setting": "[6]; Preemergence, 31 g ai/ha", "value": 90}, {"measurement": "Plant response rating, Surinam Grass", "setting": "[6]; Preemergence, 61 g ai/ha", "value": 75}, {"measurement": "Plant response rating, Surinam Grass", "setting": "[6]; Preemergence, 62 g ai/ha", "value": 95}, {"measurement": "Plant response rating, Surinam Grass", "setting": "[6]; Preemergence, 125 g ai/ha", "value": 100}, {"measurement": "Plant response rating, Corn", "setting": "corn (Zea mays); Postemergence, 16 g ai/ha", "value": 0}, {"measurement": "Plant response rating, Corn", "setting": "corn (Zea mays); Postemergence, 31 g ai/ha", "value": 20}, {"measurement": "Plant response rating, Corn", "setting": "corn (Zea mays); Postemergence, 62 g ai/ha", "value": 35}, {"measurement": "Plant response rating, Corn", "setting": "corn (Zea mays); Postemergence, 125 g ai/ha", "value": 25}, {"measurement": "Plant response rating, Corn", "setting": "corn (Zea mays); Preemergence, 31 g ai/ha", "value": 10}, {"measurement": "Plant response rating, Corn", "setting": "corn (Zea mays); Preemergence, 61 g ai/ha", "value": 5}, {"measurement": "Plant response rating, Corn", "setting": "corn (Zea mays); Preemergence, 62 g ai/ha", "value": 5}, {"measurement": "Plant response rating, Corn", "setting": "corn (Zea mays); Preemergence, 125 g ai/ha", "value": 30}, {"measurement": "Plant response rating, Pigweed, Palmer", "setting": "[7]; Postemergence, 16 g ai/ha", "value": 50}, {"measurement": "Plant response rating, Pigweed, Palmer", "setting": "[7]; Postemergence, 31 g ai/ha", "value": 70}, {"measurement": "Plant response rating, Pigweed, Palmer", "setting": "[7]; Postemergence, 62 g ai/ha", "value": 70}, {"measurement": "Plant response rating, Pigweed, Palmer", "setting": "[7]; Postemergence, 125 g ai/ha", "value": 75}, {"measurement": "Plant response rating, Pigweed, Palmer", "setting": "[7]; Preemergence, 31 g ai/ha", "value": 65}, {"measurement": "Plant response rating, Pigweed, Palmer", "setting": "[7]; Preemergence, 61 g ai/ha", "value": 40}, {"measurement": "Plant response rating, Pigweed, Palmer", "setting": "[7]; Preemergence, 62 g ai/ha", "value": 75}, {"measurement": "Plant response rating, Pigweed, Palmer", "setting": "[7]; Preemergence, 125 g ai/ha", "value": 100}]}
